Laboratory results as given in the pKa sets of Baltruschat and Czodrowski (2020).
Where a SMILES comes first, the peptide text is derived from it.

conditions: acidic group

Point of comparison: `O=C(O)[C@@H]1O[C@H](Oc2cccc3ccc[nH+]c23)[C@@H](O)[C@H](O)[C@H]1O`, pKa 3.01. Against it:
- CCC1(C)CC(=O)NC1=O (stereo not drawn) — higher, 9.34
- C=C/C(C)=C/[C@@H](C)C(=O)C[C@@H](O)CC1CC(=O)NC(=O)C1 — higher, 11.2
- Cc1cccc([P+](c2cccc(C)c2)(c2cccc(C)c2)C2c3ccccc3-c3ccccc32)c1 — higher, 9.55
- O=C1CC(S)C(=O)N1 (stereo not drawn) — higher, 6.65
- O=C(O)c1cc(O)c(O)c(C(=O)O)[o+]1 — lower, 0.6
- Cc1cc2cccc(O)c2nc1C — higher, 10.2
- FC(F)(F)c1cc(C(F)(F)F)[nH]n1 — higher, 7.51
- O=[N+]([O-])c1ccc(/C=N/O)cc1 — higher, 10
- CCCSC(C)C(=O)O (stereo not drawn) — higher, 3.82
- CC(C)(Cl)C(=O)O — within 0.2 log units, 2.97
- Nc1[nH]cc(O)[nH+]1 — higher, 4.8
- CCN(CC)C(=S)NC(=O)c1cccc(F)c1 — higher, 8.21
- O/N=C/c1ccnc2ccccc12 — higher, 10.4
- O=C(O)C12CC3(F)CC(F)(CC(F)(C3)C1)C2 — higher, 3.24
- Oc1ccc(-c2nnn[nH]2)cc1 — higher, 4.28
- C[NH+]1C[C@H](C(=O)O)C=C2c3cccc4[nH]cc(c34)C[C@@H]21 — higher, 3.25
- O=C(O)[C@@H]1O[C@H](Oc2ccc3oc4cccc(O)c4c(=O)c3c2)[C@@H](O)[C@H](O)[C@H]1O — higher, 3.94
- CC(C#N)C(C)(C)C(=O)O (stereo not drawn) — higher, 3.97
- O=C(O)c1cccc([N+](=O)[O-])c1 — higher, 3.47
- O=C([O-])CCc1nc2ccccc2[nH]1 — higher, 13.1
- CCCC(C)C1(CC)C(=O)NC(=O)NC1=O (stereo not drawn) — higher, 8.08
- CCc1nc2cc3ccccc3cc2[nH]1 — higher, 12.9
- Oc1cccc[n+]1OCc1ccccc1 — lower, -1.7
- O=[N+]([O-])Cc1ccccc1 — higher, 6.77
- Cc1ccc(C(=O)NS(=O)(=O)c2ccc(N)cc2)cc1C — higher, 4.66
- Cc1cc(N)c(O)cc1C — higher, 10.4
- CC(=S)Nc1ccc([N+](=O)[O-])cc1 — higher, 9.89
- NNC(=O)C(F)(F)C(F)(F)C(F)(F)F — higher, 8.02
- Cc1cc(-c2c(C)noc2O)on1 — within 0.2 log units, 3.2
- O=c1[nH]c(=O)c2ncn([C@H]3O[C@@H](CO)[C@H](O)[C@@H]3O)c2[nH]1 — higher, 5.72
- Cc1n[nH]c(C(=O)O)c1[N+](=O)[O-] — lower, 2.26
- O=[PH](O)C([NH2+]Cc1ccc[nH+]c1)c1ccccc1O (stereo not drawn) — lower, 2.35
- Oc1ccc2[nH]cnc2c1 — higher, 10
- CCCc1c(C)nn(-c2ccccc2)c1O — higher, 11.4
- CCCCc1c(O)nc(NCC)[nH+]c1C — higher, 5.04
- C[N+](C)(C)NC(=O)c1cccc([N+](=O)[O-])c1 — within 0.2 log units, 3.16
- O=C(O)c1cc([N+](=O)[O-])ccc1F — lower, 2.73
- O=[N+]([O-])c1cccc(-c2nnn[nH]2)c1 — higher, 3.25
- CC1c2cc(O)ccc2CC1CC(=O)O (stereo not drawn) — higher, 5.3
- Cc1cccc(C(=O)N(C)O)c1 — higher, 8.52
- C[N+](C)(C)CCc1ccccc1O — higher, 9.57
- COc1cc(S(C)=O)ccc1-c1nc2ccnnc2[nH]1 (stereo not drawn) — higher, 8.7
- Oc1cccc2scnc12 — higher, 8.77
- CC(=O)CC(=O)c1ccc[se]1 — higher, 8.55
- C#CCCCCC(=O)O — higher, 4.58
- c1ccc(-c2nnn[nH]2)cc1 — higher, 4.03
- Cc1cccc(C(=O)O)c1[N+](=O)[O-] — within 0.2 log units, 2.91
- CO/C([O-])=N/c1ncnc2nc[nH]c12 — higher, 12.1
- Cc1c(Cl)c([N+](=O)[O-])cc2c1nnn2O — within 0.2 log units, 3.1
- [NH3+]C(Cc1c[nH]c(=S)[nH]1)C(=O)O (stereo not drawn) — lower, 1.84
- CCC(=O)OO — higher, 8.1
- [NH3+]CCc1cccc(O)c1 — higher, 9.27
- Nc1c([O-])cccc1O — higher, 11.6
- CCOP(=O)([O-])NS(=O)(=O)c1ccccc1 — higher, 6.5
- Cc1ccc(NC(=S)c2cccc(Br)c2)cc1 — higher, 10.9
- C/N=C(/SC)c1ccccc1 — higher, 6.42
- [NH3+]C(c1cccc(O)c1[O-])P(=O)([O-])[O-] (stereo not drawn) — higher, 12.4
- CC(C)(C)OOCC(=O)O — higher, 3.49
- Cc1cccc(O)c1O — higher, 9.28
- C[n+]1cccc(O)c1 — higher, 4.96
- CCN(CC)CC(=N\[O-])/C(C)=N/O — higher, 11.9
- O=[N+]([O-])c1ccc(O)c(C[NH+]2CCOCCOCCOCCOCC2)c1 — higher, 5.79

same assay, conditions: basic group

Point of comparison: `O=[N+]([O-])c1ccc2[nH]c(-c3cccs3)nc2c1`, pKa 2.36. Against it:
- CCCCC(N)C(=O)[O-] (stereo not drawn) — higher, 9.89
- NCCCCCCN — higher, 11
- C=C(C(=O)O[C@H]1C[C@@H]2[C@@H]3O[C@@H]3[C@H](C1)N2C)c1ccccc1 — higher, 7.72
- CN(C)CCCN — higher, 10
- CCN1CCC[C@@H]1CNC(=O)c1c([O-])cccc1OC — higher, 9.54
- Cc1cc2cccc(O)c2nc1C — higher, 5.86
- Cc1noc(-c2ccccc2)c1C(=O)O — lower, 1.7
- CN(C)C[C@@H]1[C@H](CO)[C@H]2C=C[C@@H]1C2 — higher, 9.54
- CCc1ccc(C(=O)[O-])nc1 — higher, 5.86
- CCSC(=O)c1ccc(Cl)cc1 — lower, -5.02
- CCC(C)(N)CC — higher, 10.9
- C[C@@H]1C[NH2+][C@@H](C)CN1 — higher, 5.29
- CCC(=O)C(CCN(C)C)(c1ccccc1)c1ccccc1 — higher, 9.23
- CN(C)c1ncnc2c1cnn2C — higher, 4.06
- C1CCC(NC2CCCCO2)OC1 (stereo not drawn) — higher, 8.1
- C[NH+](C)CC(C)(C)CN — higher, 7.4
- CC(CN(C)C)[NH+](C)C (stereo not drawn) — higher, 5.4
- CN(C)CCc1ccc(O)cc1 — higher, 9.8
- Fc1cccc2[nH]cnc12 — higher, 4.4
- Cc1cc(N)c2ccccc2n1 — higher, 9.44
- CN(C)c1ccc(C(O)c2ccc(N(C)C)cc2)cc1 — higher, 5.61
- O/N=C/c1ccnc2ccccc12 — higher, 4.55
- CCN(CC)Cc1cc(Cl)ccc1[O-] — higher, 11.2
- Cc1ncc(C[NH3+])c(N)n1 — higher, 4
- CCN(CC)CC(=O)Nc1c(C)cc(C)cc1C — higher, 7.9
- c1cnc2ccc3ncccc3c2c1 — higher, 4
- COc1ccc(OC)nn1 — lower, 1.61
- Cn1cnc2ncnc([O-])c21 — higher, 8.8
- O=C([O-])CCc1nc2ccccc2[nH]1 — higher, 5.7
- CCc1nc2cc3ccccc3cc2[nH]1 — higher, 6.14
- CC(=O)OC1CN2CCC1CC2 (stereo not drawn) — higher, 9.27
- [O-]c1nc2ccccc2[nH]1 — higher, 11.9
- C[C@H](N)C(=O)N[C@@H](Cc1c[nH]cn1)C(=O)[O-] (H-Ala-His-OH) — higher, 8.08
- Cc1ccnc(N)c1 — higher, 7.48
- Cc1cc(N)c(O)cc1C — higher, 5.28
- CCC/C(N)=C/C(=O)c1ccccc1 — lower, -1.12
- Cc1n[nH]c2cc(N)ccc12 — higher, 4
- CCCCNN — higher, 7.82
- C[C@H]1CC[C@H]2[C@H](C)CC[C@@H](C(=O)[O-])N2C1 — higher, 10.8
- Nc1ccc([I+]c2ccccc2)cc1 — lower, 1.66
- Brc1ccc(Nc2ccccc2)cc1 — lower, 1.73
- Cn1ccc(=S)cc1 — lower, 1.36
- NOCc1ccc(Cl)cc1 — higher, 4.22
- Cn1ncc2c(N)nc(Cl)nc21 — higher, 2.69
- CN(O)Cc1ccccc1 — higher, 4.6
- Oc1ccc2[nH]cnc2c1 — higher, 5.69
- Nc1ccc2cncnc2c1 — higher, 4.6
- COc1cccc(C(=O)NC2CC3CCC(C2)N3Cc2ccccc2)c1OC (stereo not drawn) — higher, 8.91
- N[C@H]1C[C@@H]2CCCC[C@H]2C[C@@H]1N — higher, 9.97
- Nc1ccc2nc3ccc(N)cc3cc2c1 — higher, 6.18
- Nc1cccc2[nH+]cccc12 — lower, 0.97
- COC(=O)c1cc(Br)c(=O)n(N)c1 — within 0.2 log units, 2.4
- COc1c(C(=O)N[C@@H]2C[C@H]3CC[C@@H](C2)N3Cc2ccccc2)cccc1[N+](=O)[O-] — higher, 8.61
- CCN(CC)/N=C(\N)CC[Si](C)(C)C — higher, 10.7
- NC(=O)CCCCc1ccccn1 — higher, 5.73
- [NH3+]CCC(=O)N[C@@H](Cc1c[nH]cn1)C(=O)[O-] — higher, 6.89
- CN1C2CCC(CC2)N1C — higher, 7.14
- Nc1ccnc(N)n1 — higher, 7.26
- NCCCc1ccccc1 — higher, 10.3
- C[C@@H]1N[C@H](CCCCCCCC(=O)[O-])CC[C@@H]1O — higher, 10.4
- C1CCN(N2CCCC2)C1 — higher, 7.16
- COc1cc(S(C)=O)ccc1-c1nc2ccnnc2[nH]1 (stereo not drawn) — higher, 3.63
- Oc1cccc2scnc12 — lower, 1.25
- Nc1cccnc1N — higher, 6.84
- c1ccc(-c2[nH]cc[nH+]2)nc1 — lower, 0.6
- CNC(=N)N — higher, 13.4
- COc1cccc(CN)c1OC — higher, 9.41
- Brc1ccc(C2NCCS2)cc1 (stereo not drawn) — higher, 5.05
- CC1(C)CCCC(C)(C)N1 — higher, 11.2
- O=C([O-])CN=C1CCCCC1 — higher, 9.48
- CC[NH+](CC)[C@H]1CCC[C@@H]1N(C)C — higher, 5.76
- NCCNCCc1ccccc1 — higher, 9.44
- COc1ccc(S(=O)(=O)NCCCN2CCOCC2)c(OC)c1OC — higher, 6.76
- Cc1ccc(C(O)CN)cc1 (stereo not drawn) — higher, 9.06
- Cn1c[nH+]c2cc(N)ccc21 — higher, 3.09
- N#CCC(N)c1ccccc1 (stereo not drawn) — higher, 6.7
- Nc1nc2ccccc2c2ccccc12 — higher, 7.31
- N[C@H]1CCCC[C@@H]1O — higher, 9.35
- CCC(=O)C(c1ccccc1)(c1ccccc1)C(C)CN1CCOCC1 (stereo not drawn) — higher, 7.12
- C1CNCCNCCCNCCNC1 — higher, 11.1
- CCN(CC)CCBr — higher, 7
- C1CN2C(=N1)N1CCN=C1N1CCN=C21 — higher, 5.8
- Cn1cnc2cncnc21 — within 0.2 log units, 2.42
- COC(=N)N — higher, 9.72
- CN(C)CCO — higher, 9.36
- CCN(CC)CCCCCCNc1c2ccc(Cl)cc2nc2ccc(OC)cc12 — higher, 10.3
- CCCCCCCCCCCCCCCC(=O)N[C@@H](Cc1c[nH]cn1)C(=O)[O-] — higher, 6.2
- CCOC(=O)CC(NC)c1ccccc1 (stereo not drawn) — higher, 8.23
- Nc1ncc(Cl)s1 — higher, 3.66
- c1nc(Cc2c[nH]c(Cc3nc(Cc4c[nH+]c[nH]4)c[nH]3)[nH+]2)c[nH]1 — higher, 5.43
- c1ccc(Cc2cc(-c3ccccc3)nnc2NCC[NH+]2CCOCC2)cc1 — higher, 3.6
- C[C@H](N)[C@H](C)N — higher, 9.84
- NCCCCCCC#CC#CCCC(=O)[O-] — higher, 10.7
- CCN(CC)CC(=N\[O-])/C(C)=N/O — higher, 11.9
- c1cnc2c(c1)ccc1c3c(cnc12)CCCC3 — higher, 5.66
- CCCN1C=CC(=CC=C2C=CC(=O)C=C2)C=C1 — higher, 8.5
- Fc1cccnc1 — higher, 2.97
- CC(C)CCCC(C)N (stereo not drawn) — higher, 10.3
- [NH3+]CCCNCCC[NH3+] — higher, 8.08
- Cn1ccc(=NC(=O)c2ccccc2)cc1 — higher, 9.89
- [NH3+]Nc1nncc2ccccc12 — higher, 2.9
- O=[N+]([O-])c1cccc2nc3ccccc3c(NCCCO)c12 — higher, 7.55
- CN(C)c1ncnc2c1ncn2[C@H]1O[C@@H](CO)[C@H](O)[C@@H]1O — higher, 3.65
- CC(C)(C)c1ccc(C(O)CCCN2CCC(C(O)(c3ccccc3)c3ccccc3)CC2)cc1 (stereo not drawn) — higher, 8.6
